Test results from patent US11413264B2, “Carbamoyl phenylalaninol analogs and uses thereof” (Jazz Pharmaceuticals Ireland Limited, priority 2017, dated 2022).
Where a name gives a salt, the structure may show the parent alone. Read-outs that look alike come from different tables or passages of the source.

Legend:
[1] = biological target: T1, D2L dopamine receptor (D2L) (Homo sapiens, UniProt P14416); experiment: Competitive radioligand binding assay, D2L (antagonist radioligand); conditions: compound at 10 μM
T1 construct: expressed in transfected cells; host or cells: HEK-293 cells (membrane fractions)
Protocol: (§1) Compounds of the invention were tested for pharmacological activity in comparison to APC. Eight binding assays were carried out to provide a binding profile for each compound, including binding to dopamine transporter (DAT), norepinephrine transporter (NET), serotonin (5-HT) transporter (SERT), alpha2A adrenergic receptor (Alpha2A), alpha2C adrenergic receptor (Alpha2C), D2S dopamine receptor (D2S), D2L dopamine receptor (D2L), and vesicular monoamine transporter (VMAT2). Competitive binding assays using a radiolabeled ligand were carried out with each compound at 10 μM. The radioligand for each target was as follows: DAT—BTCP, NET—nisoxetine, SERT—imipramine, Alpha2A—yohimbine, Alpha2C—yohimbine, D2S—7-OH-DPAT, D2L—methylspiperone, VMAT2—tetrabenazine. The source of the receptors and transporters were prepared cell membrane fractions.

[2] = biological target: T2, alpha2A adrenergic receptor (Alpha2A) (Homo sapiens, UniProt P08913); experiment: Competitive radioligand binding assay, α2A (antagonist radioligand); conditions: compound at 10 μM
T2 construct: expressed in transfected cells; host or cells: CHO cells (membrane fractions)
T2 sequence (P08913 1-465): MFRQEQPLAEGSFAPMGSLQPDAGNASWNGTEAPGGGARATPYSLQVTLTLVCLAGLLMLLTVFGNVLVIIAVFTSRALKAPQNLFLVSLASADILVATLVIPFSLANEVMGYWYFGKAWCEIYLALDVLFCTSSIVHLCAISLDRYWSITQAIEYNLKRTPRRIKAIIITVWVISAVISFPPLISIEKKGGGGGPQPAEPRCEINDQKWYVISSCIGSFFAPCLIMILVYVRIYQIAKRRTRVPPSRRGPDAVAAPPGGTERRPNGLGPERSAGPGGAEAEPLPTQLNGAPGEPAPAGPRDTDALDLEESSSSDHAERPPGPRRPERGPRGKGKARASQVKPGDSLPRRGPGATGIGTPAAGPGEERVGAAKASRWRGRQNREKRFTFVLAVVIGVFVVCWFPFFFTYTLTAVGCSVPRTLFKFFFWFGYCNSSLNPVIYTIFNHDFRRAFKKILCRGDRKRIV
Protocol: as §1

[3] = biological target: T3, dopamine transporter (DAT) (Homo sapiens, UniProt Q01959); experiment: Competitive radioligand binding assay, dopamine transporter (antagonist radioligand); conditions: compound at 10 μM; for binding to the dopamine transporter (in words): summary
T3 construct: expressed in transfected cells; host or cells: CHO cells (membrane fractions)
Protocol: as §1

[4] = biological target: T4, alpha2C adrenergic receptor (Alpha2C) (Homo sapiens, UniProt P18825); experiment: Competitive radioligand binding assay, α2C (antagonist radioligand); conditions: compound at 10 μM
T4 construct: expressed in transfected cells; host or cells: CHO cells (membrane fractions)
T4 sequence (P18825 1-462): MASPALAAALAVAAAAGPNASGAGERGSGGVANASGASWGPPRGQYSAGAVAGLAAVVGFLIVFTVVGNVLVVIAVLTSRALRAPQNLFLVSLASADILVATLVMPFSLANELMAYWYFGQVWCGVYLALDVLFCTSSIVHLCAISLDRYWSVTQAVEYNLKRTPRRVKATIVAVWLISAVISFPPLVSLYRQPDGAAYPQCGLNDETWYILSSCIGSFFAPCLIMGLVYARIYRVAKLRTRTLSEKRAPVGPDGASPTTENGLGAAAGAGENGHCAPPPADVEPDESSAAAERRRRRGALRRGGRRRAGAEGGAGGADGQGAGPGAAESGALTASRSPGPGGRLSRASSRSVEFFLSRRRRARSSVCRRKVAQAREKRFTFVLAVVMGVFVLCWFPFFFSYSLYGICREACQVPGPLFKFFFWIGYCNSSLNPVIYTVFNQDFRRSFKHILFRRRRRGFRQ
Protocol: as §1

[5] = biological target: T5, vesicular monoamine transporter (VMAT2) (Rattus norvegicus, UniProt Q01827); experiment: Competitive radioligand binding assay, VMAT2 transporter (antagonist radioligand); conditions: compound at 10 μM
T5 construct: Rat brain; from tissue; host or cells: rat brain minus cerebellum, membrane fraction
Protocol: as §1

[6] = biological target: T6, norepinephrine transporter (NET) (Homo sapiens, UniProt P23975); experiment: Competitive radioligand binding assay, norepinephrine transporter (antagonist radioligand); conditions: compound at 10 μM
T6 construct: expressed in transfected cells; host or cells: CHO cells (membrane fractions)
Protocol: as §1

[7] = biological target: T7, serotonin (5-HT) transporter (SERT) (Homo sapiens, UniProt P31645); experiment: Competitive radioligand binding assay, 5-HT transporter (antagonist radioligand); conditions: compound at 10 μM
T7 construct: expressed in transfected cells; host or cells: CHO cells (membrane fractions)
Protocol: as §1

[8] = biological target: T8, D2S dopamine receptor (D2S) (Homo sapiens, UniProt P14416); experiment: Competitive radioligand binding assay, D2S (agonist radioligand); conditions: compound at 10 μM
T8 construct: expressed in transfected cells; host or cells: HEK-293 cells (membrane fractions)
Protocol: as §1

[9] = D2L, 1st individual result, read-out: % inhibition of control specific binding, 1st
[10] = D2L, 2nd individual result, read-out: % inhibition of control specific binding, 2nd
[11] = D2L, mean, read-out: % inhibition of control specific binding, Mean
[12] = [3H]methyl-spiperone 0.3 nM, human recombinant (HEK-293 cells), read-out: % Inhibition of Binding at Each Transporter or Receptor Target, D2L
[13] = 1st individual result, read-out: % inhibition of control specific binding, 1st
[14] = 2nd individual result, read-out: % inhibition of control specific binding, 2nd
[15] = mean, read-out: % inhibition of control specific binding, Mean
[16] = Dopamine transporter, 1st individual result, read-out: % inhibition of control specific binding, 1st
[17] = Dopamine transporter, 2nd individual result, read-out: % inhibition of control specific binding, 2nd
[18] = Dopamine transporter, mean, read-out: % inhibition of control specific binding, Mean
[19] = [3H]BTCP 4 nM, human recombinant (CHO cells), read-out: % Inhibition of Binding at Each Transporter or Receptor Target, DAT
[20] = VMAT2 transporter, single value, read-out: % inhibition of control specific binding, 1st
[21] = [3H]dihydrotetrabenazine 10 nM, rat brain (minus cerebellum), read-out: % Inhibition of Binding at Each Transporter or Receptor Target, VMAT2
[22] = Norepinephrine transporter, 1st individual result, read-out: % inhibition of control specific binding, 1st
[23] = Norepinephrine transporter, 2nd individual result, read-out: % inhibition of control specific binding, 2nd
[24] = Norepinephrine transporter, mean, read-out: % inhibition of control specific binding, Mean
[25] = [3H]nisoxetine 1 nM, human recombinant (CHO cells), read-out: % Inhibition of Binding at Each Transporter or Receptor Target, NET
[26] = 5-HT transporter, 1st individual result, read-out: % inhibition of control specific binding, 1st
[27] = 5-HT transporter, 2nd individual result, read-out: % inhibition of control specific binding, 2nd
[28] = 5-HT transporter, mean, read-out: % inhibition of control specific binding, Mean
[29] = [3H]imipramine 2 nM, human recombinant (CHO cells), read-out: % Inhibition of Binding at Each Transporter or Receptor Target, SERT
[30] = D2S, 1st individual result, read-out: % inhibition of control specific binding, 1st
[31] = D2S, 2nd individual result, read-out: % inhibition of control specific binding, 2nd
[32] = D2S, mean, read-out: % inhibition of control specific binding, Mean
[33] = [3H]7-OH-DPAT 1 nM, human recombinant (HEK-293 cells), read-out: % Inhibition of Binding at Each Transporter or Receptor Target, D2S

T8 sequence (P14416 1-414 isoform P14416-2): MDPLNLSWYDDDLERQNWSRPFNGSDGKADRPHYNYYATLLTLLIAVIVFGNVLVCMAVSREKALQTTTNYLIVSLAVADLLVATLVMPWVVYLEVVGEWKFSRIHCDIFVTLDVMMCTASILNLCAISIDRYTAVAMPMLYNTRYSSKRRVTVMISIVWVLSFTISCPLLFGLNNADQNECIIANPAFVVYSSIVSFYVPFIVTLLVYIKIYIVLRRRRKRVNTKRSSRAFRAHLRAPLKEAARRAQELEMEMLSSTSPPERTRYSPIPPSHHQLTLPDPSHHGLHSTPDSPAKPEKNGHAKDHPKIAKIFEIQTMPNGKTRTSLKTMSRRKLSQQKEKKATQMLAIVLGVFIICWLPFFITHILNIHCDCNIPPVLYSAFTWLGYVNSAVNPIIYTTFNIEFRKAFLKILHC
T3 sequence (Q01959 whole entry): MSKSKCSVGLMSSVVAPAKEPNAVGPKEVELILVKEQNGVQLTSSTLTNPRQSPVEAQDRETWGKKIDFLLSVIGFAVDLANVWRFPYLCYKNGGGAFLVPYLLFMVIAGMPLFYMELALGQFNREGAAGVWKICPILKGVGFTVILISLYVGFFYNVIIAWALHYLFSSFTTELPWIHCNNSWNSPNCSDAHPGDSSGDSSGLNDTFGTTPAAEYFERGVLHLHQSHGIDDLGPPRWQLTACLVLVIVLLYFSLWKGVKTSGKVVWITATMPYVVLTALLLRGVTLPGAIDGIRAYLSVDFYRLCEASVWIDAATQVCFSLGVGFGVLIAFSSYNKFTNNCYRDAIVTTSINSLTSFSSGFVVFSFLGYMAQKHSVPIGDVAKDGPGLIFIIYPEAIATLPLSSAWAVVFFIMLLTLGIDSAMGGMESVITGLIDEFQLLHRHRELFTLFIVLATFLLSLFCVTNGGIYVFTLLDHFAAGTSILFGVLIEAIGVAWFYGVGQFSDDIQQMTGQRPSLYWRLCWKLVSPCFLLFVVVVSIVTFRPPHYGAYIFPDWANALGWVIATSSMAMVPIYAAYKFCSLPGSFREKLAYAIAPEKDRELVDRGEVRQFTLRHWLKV
T7 sequence (P31645 whole entry): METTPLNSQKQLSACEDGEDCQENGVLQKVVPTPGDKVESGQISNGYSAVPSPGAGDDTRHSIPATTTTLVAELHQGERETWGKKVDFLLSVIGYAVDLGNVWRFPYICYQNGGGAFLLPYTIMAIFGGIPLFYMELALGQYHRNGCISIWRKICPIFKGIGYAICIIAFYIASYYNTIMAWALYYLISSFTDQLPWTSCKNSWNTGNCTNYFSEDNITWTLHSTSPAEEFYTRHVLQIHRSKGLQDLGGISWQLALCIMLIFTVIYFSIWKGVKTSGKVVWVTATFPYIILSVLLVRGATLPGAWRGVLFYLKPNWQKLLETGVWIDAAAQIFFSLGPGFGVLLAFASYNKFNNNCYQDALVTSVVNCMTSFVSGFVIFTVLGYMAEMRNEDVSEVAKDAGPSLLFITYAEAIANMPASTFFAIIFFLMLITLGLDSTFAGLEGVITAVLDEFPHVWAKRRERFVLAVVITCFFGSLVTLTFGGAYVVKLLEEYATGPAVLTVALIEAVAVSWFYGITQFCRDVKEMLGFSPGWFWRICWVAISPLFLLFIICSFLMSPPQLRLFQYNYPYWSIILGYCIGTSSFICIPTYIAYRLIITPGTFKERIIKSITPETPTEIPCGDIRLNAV
T5 sequence (Q01827 whole entry): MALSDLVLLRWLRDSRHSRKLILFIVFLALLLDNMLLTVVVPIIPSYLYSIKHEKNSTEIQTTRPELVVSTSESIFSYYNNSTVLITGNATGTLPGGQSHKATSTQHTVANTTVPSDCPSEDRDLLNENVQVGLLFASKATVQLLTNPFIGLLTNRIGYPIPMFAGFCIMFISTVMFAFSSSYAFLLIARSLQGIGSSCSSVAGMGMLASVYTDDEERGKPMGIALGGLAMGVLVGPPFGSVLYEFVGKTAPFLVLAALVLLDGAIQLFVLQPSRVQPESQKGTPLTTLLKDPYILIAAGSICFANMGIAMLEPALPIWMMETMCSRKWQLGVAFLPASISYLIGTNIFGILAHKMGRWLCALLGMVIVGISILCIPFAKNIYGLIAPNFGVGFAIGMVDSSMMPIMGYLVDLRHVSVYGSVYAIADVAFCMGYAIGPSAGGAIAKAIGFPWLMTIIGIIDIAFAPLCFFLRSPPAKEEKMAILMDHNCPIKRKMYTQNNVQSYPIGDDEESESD
T1 sequence (P14416 whole entry): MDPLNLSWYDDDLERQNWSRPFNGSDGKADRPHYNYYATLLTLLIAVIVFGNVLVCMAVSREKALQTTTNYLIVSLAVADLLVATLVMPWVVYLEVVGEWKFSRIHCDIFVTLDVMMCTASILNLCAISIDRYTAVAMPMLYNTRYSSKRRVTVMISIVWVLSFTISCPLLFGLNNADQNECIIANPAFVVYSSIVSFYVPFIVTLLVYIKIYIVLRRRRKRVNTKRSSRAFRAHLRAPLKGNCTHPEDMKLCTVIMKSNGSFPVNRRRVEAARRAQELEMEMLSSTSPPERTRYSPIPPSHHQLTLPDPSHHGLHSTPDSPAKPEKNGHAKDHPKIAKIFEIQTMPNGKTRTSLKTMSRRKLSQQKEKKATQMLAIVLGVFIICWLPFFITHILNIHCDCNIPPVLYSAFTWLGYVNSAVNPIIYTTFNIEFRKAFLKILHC
T6 sequence (P23975 whole entry): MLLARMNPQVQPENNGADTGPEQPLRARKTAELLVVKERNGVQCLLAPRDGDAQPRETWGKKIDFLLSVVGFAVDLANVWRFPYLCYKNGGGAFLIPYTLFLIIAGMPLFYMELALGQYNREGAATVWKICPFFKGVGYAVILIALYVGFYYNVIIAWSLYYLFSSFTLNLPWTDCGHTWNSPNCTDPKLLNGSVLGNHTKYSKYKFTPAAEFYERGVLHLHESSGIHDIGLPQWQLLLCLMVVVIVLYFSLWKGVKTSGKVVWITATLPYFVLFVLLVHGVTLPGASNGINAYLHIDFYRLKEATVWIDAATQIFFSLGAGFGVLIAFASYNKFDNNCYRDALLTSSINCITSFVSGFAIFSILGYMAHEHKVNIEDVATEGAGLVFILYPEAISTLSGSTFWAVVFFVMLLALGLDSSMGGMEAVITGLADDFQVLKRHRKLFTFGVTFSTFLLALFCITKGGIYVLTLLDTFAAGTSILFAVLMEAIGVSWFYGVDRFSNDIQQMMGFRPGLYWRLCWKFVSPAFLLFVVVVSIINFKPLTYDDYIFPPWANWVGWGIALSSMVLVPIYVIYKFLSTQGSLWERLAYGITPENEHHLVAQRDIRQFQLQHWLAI

Structure (SMILES)	inhibition at 10 µM [1, 9] [%]	inhibition at 10 µM [1, 10] [%]	inhibition at 10 µM [1, 11] [%]	inhibition at 10 µM [1, 12] [%]	inhibition at 10 µM [2, 13] [%]	inhibition at 10 µM [2, 14] [%]	inhibition at 10 µM [2, 15] [%]	inhibition at 10 µM [3, 16] [%]	inhibition at 10 µM [3, 17] [%]	inhibition at 10 µM [3, 18] [%]	inhibition at 10 µM [3, 19] [%]	binding to the dopamine transporter (in words) [3]	inhibition at 10 µM [4, 13] [%]	inhibition at 10 µM [4, 14] [%]	inhibition at 10 µM [4, 15] [%]	inhibition at 10 µM [5, 20] [%]	inhibition at 10 µM [5, 21] [%]	inhibition at 10 µM [6, 22] [%]	inhibition at 10 µM [6, 23] [%]	inhibition at 10 µM [6, 24] [%]	further results
NC(=O)OC[C@H](N)Cc1ccccc1 [APC, (R)-2-amino-3-phenylpropyl carbamate, reference compound]	-0.1	4.6	2.3	2.3	5.2	8.7	7	79.3	81.1	80.2	80.2	substantial binding	4.1	2.3	3.2	7	7	6.9	16	11.4	inhibition at 10 µM [6, 25]: 11.4%; inhibition at 10 µM [7, 26]: -6.3%; inhibition at 10 µM [7, 27]: -3.3%; inhibition at 10 µM [7, 28]: -4.8%; inhibition at 10 µM [7, 29]: -4.8%; inhibition at 10 µM [8, 30]: 0.7%; inhibition at 10 µM [8, 31]: 8.2%; inhibition at 10 µM [8, 32]: 4.4%; inhibition at 10 µM [8, 33]: 4.4%
NC(=O)NC[C@H](N)Cc1ccccc1 [Compound 3, (R)-1-(2-Amino-3-phenylpropyl)urea hydrochloride]	-6.7	7.6	0.5	0.5	1.7	7.8	4.8	86.8	90.5	88.6	88.6	substantial binding	8.6	22.6	15.6	0	0	42.6	23	32.8	inhibition at 10 µM [6, 25]: 32.8%; inhibition at 10 µM [7, 26]: -2.4%; inhibition at 10 µM [7, 27]: -0.4%; inhibition at 10 µM [7, 28]: -1.4%; inhibition at 10 µM [7, 29]: -1.4%; inhibition at 10 µM [8, 30]: -1.6%; inhibition at 10 µM [8, 31]: 0.2%; inhibition at 10 µM [8, 32]: -0.7%; inhibition at 10 µM [8, 33]: -0.7%
NC(=O)CC[C@H](N)Cc1ccccc1 [Compound 4, (S)-4-Amino-5-phenylpentanamide hydrochloride]	1.4	0.8	1.1	1.1	7.8	-9.3	-0.8	52.9	60	56.5	56.5	substantial binding	3.4	2.3	2.9	0	0	7	-21.9	-7.5	inhibition at 10 µM [6, 25]: -7.5%; inhibition at 10 µM [7, 26]: -2.9%; inhibition at 10 µM [7, 27]: 1.8%; inhibition at 10 µM [7, 28]: -0.5%; inhibition at 10 µM [7, 29]: -0.5%; inhibition at 10 µM [8, 30]: -8.2%; inhibition at 10 µM [8, 31]: -3.7%; inhibition at 10 µM [8, 32]: -6%; inhibition at 10 µM [8, 33]: -6%
